Test results from US7718693B2, “Receptor antagonists and their methods of use” (Glaxo Group Limited, priority 2006, dated 2010).

Tests used:
Type in all cases: in vivo
Random Hooded rats [1] = test: Rat Model of Neuropathic Pain (sciatic nerve ligatures, Von Frey mechanical allodynia); details: oral, twice daily for 8 days, 26-33 days post surgery
From the text: Rat Model of Neuropathic Pain
By placing loosely constrictive ligatures around the common sciatic nerve, a peripheral mononeuropathy can be produced, which thereby provides a rat model of neuropathic pain, Bennet et al., Pain, Vol. 33, pp 87-107 (1988). Adult male Random Hooded rats (180-200 g) from Charles River, UK were anaesthetised with isoflurane (3%). The sciatic nerve in the left leg was exposed at mid thigh level and 4 loose ligatures of Chromic 4.0 gut tied around the nerve as described by Bennet et al., Pain, Vol. 33, pp 87-107 (1988). The wound was closed and secured with staples. Sham rats underwent the same procedure but loose ligatures were not applied. The presence of mechanical (tactile) allodynia was assessed using manual application of Von Frey hair monofilaments. Monofilaments were applied in ascending order to the plantar region of the hind paw (range: 1.4 g-26 g). Each hair was applied for approx. 3-5 seconds until a paw withdrawal response was observed. After confirmation with reapplication of lower and/or higher hairs, the lowest hair to give a paw withdrawal was recorded as the threshold response (g). When stable allodynia was established rats were dosed orally 26-33 days post surgery with compound twice daily for 8 days with allodynia measurements recorded at least three times during the dosing period.

Random Hooded rats [2] = test: Rat Model of Joint Pain (intra-articular FCA, weight bearing); details: oral; for ED50: FCA (i.art) weight bearing, read-out: ED50 obtained from Area Under the Curve (AUC) calculations; for reversal of FCA (i.art)-induced difference in weight bearing compared to vehicle response: twice daily for 5 days, normally 13-17 days post surgery
Experimental: By measuring hypersensitivity post intra-articular injection of FCA into the knee, the effectiveness of a potential analgesic in reversing FCA-induced hypersensitivity can be assessed in a joint pain model of chronic inflammatory pain. Adult male Random Hooded rats (150-180 g) from Charles River, UK were briefly anaesthetised with isoflurane (3%). Rats were then injected with 150 μl of Freund's complete adjuvant (FCA) into the left knee joint (intra-articularly, i.art). The ability to bear weight on each hindlimb (weight bearing, g) was measured prior to and following surgery using a Dual Channel Weight Averager (Linton Instruments). When a stable difference in weight bearing was established between the injected and contralateral paws, rats were typically dosed orally (normally 13-17 days post surgery) with compound twice daily for 5 days with weight bearing measurements recorded daily.

Random Hooded rats [3] = test: Rat Model of Acute Inflammatory Pain (intraplantar FCA, weight bearing); details: oral; for reversal of FCA (i.pl)-induced difference in weight bearing compared to vehicle response: 24 hours after FCA injection; for ED50: FCA (i.pl) weight bearing, read-out: ED50 obtained from dose response curves
Experimental: Rat Model of Acute Inflammatory Pain
A useful animal model for acute inflammatory pain is the Freund's Complete Adjuvant (FCA)-induced inflammation model. A similar model using carrageenan rather than FCA is described by Clayton et al. in Br. J. Pharmacol. 1997; 120, 219P. Adult male Random Hooded rats (180-220 g) from Charles River, UK received an intraplantar (i.pl) injection of 100 μl of FCA into the plantar surface of the left hind paw. The ability to bear weight on each hindlimb (weight bearing g) was measured prior to and 24 hours after the FCA injection using a Dual Channel Weight Averager (Linton Instruments). After the post-FCA reading, rats were typically dosed orally with compound after which weight bearing measurements were recorded.

Row | Compound | reversal of CCl-induced mechanical allodynia compared to vehicle response (Random Hooded rats [1]) | ED50 (Random Hooded rats [2]) | reversal of FCA (i.art)-induced difference in weight bearing compared to vehicle response (Random Hooded rats [2]) | reversal of FCA (i.pl)-induced difference in weight bearing compared to vehicle response (Random Hooded rats [3]) | ED50 (Random Hooded rats [3])
1 | CN1C(=O)CC[C@H]1C(=O)NCc1ccc(Cl)cc1Cl [Example E10, N-[(2,4-dichlorophenyl)methyl]-1-methyl-5-oxo-prolinamide] | significantly reversed | < 20 mg/kg | significantly reversed | significantly reversed | < 20 mg/kg
2 | CN1C(=O)CC[C@H]1C(=O)NCc1cccc(C(F)(F)F)c1Cl [Example E51, N-{[2-chloro-3-(trifluoromethyl)phenyl]methyl}-1-methyl-5-oxoprolinamide] | significantly reversed | < 20 mg/kg | significantly reversed | significantly reversed | < 20 mg/kg
